Common to all, as to assay type: cell-based
The subject of one assay is SNB-75. The assay can be described thus: NCI antitumor screen (SRB). The note with it: Homo sapiens; for inhibition at 10 µM: one dose 10 µM, read-out: Growth inhibition percentage (GI%).
The subject of assay [1] is renal cancer tumour cell lines. The assay can be described thus: NCI antitumor screen, subpanel.
Assay [2] concerns colon cancer tumour cell lines. The assay can be described thus: NCI antitumor screen, subpanel.
In assay [3] the test system is melanoma tumour cell lines. The assay can be described thus: NCI antitumor screen, subpanel.
The next assay deals with HOP-92. The assay can be described thus: NCI antitumor screen (SRB). The note with it: Homo sapiens, five concentrations 0.01-100 µM.
The subject of assay [4] is breast cancer tumour cell lines. The assay can be described thus: NCI antitumor screen, subpanel.
For assay [5], the system named is CNS cancer tumour cell lines. The assay can be described thus: NCI antitumor screen, subpanel.
Assay [6] has as its system NSC lung cancer tumour cell lines. The assay can be described thus: NCI antitumor screen, subpanel.
Assay [7] deals with leukaemia tumour cell lines. The assay can be described thus: NCI antitumor screen, subpanel.
In assay [8] the test system is prostate cancer tumour cell lines. The assay can be described thus: NCI antitumor screen, subpanel.
In assay [9] the test system is ovarian cancer tumour cell lines. The assay can be described thus: NCI antitumor screen, subpanel.
The mark [10] stands for this setting: Homo sapiens, five concentrations.
[11] abbreviates: Homo sapiens, read-out: LC50 (subpanel average).

Consider `O=c1[nH]cc(F)c(=O)[nH]1` [Compound 5-Fu, 5-fluorouracil, reference compound], for which the inhibition at 10 µM in the assay with SNB-75 was determined as 34.1%.

For the compound `CS(=O)(=O)c1ccc(C(=O)NN=Cc2cccc3ccccc23)cc1` [Compound 6, 4-(Methylsulfonyl)-N'-(naphthalen-1-ylmethylene)benzohydrazide], the inhibition at 10 µM in the assay with SNB-75 came to 10.3%.

Regarding `Cc1ccc(C=NNC(=O)c2ccc(S(C)(=O)=O)cc2)cc1` [Compound 9, N'-(4-Methylbenzylidene)-4-(methylsulfonyl)benzohydrazide], the inhibition at 10 µM with SNB-75 is under 10%.

For `CS(=O)(=O)c1ccc(C(=O)N/N=C/c2ccccc2O)cc1` [Compound 16], the inhibition at 10 µM with SNB-75 was 22.3%.

For `CCN(CC)c1ccc(/C=N/NC(=O)c2ccc(S(C)(=O)=O)cc2)c(O)c1` [Compound 20], the “TGI (subpanel average)” value in [1] was 80.3 µM; in assay [2], “c (Compounds showed values ≥ 100 µM)”; in assay [3], 45.6 µM; in assay [4], 69.5 µM; in assay [5], 71.7 µM; in assay [6], 65.0 µM. Also, the “TGI (subpanel average)” value in [7] is listed as 83.5 µM; in [8] it was “c (Compounds showed values ≥ 100 µM)”; in [9] it was 70.0 µM. Further, the GI50 in assay [1] (setting [10]) was found to be 1.4 µM; in the assay on SNB-75 (five concentrations 0.01-100 µM), 0.228 µM; in assay [2] (setting [10]), 0.27 µM; in assay [3] (setting [10]) it was 0.31 µM; in the assay on HOP-92, 0.491 µM; in [4] (setting [10]), 2.2 µM. Also, the GI50 in assay [5] (setting [10]) is 0.22 µM; in assay [6] (setting [10]), 0.26 µM; in [7] (setting [10]) it was 0.23 µM; in [8] (setting [10]), 0.23 µM; in assay [9] (setting [10]), 1.1 µM. The CC50 in [1] (setting [11]), in [2] (setting [11]), in assay [3] (setting [11]), in assay [4] (setting [11]), in [5] (setting [11]) and in assay [6] (setting [11]) was over 100 µM in each case. In addition, the CC50 in [7] (setting [11]), in assay [8] (setting [11]) and in assay [9] (setting [11]) was over 100 µM in each case. In addition, in the assay with SNB-75, the inhibition at 10 µM worked out at 44.8%.

For orientation: inhibition means the percentage by which the read-out fell short of the control. As usually defined, the GI50 is the concentration giving 50% growth inhibition. Read a low GI50 as greater sensitivity of the cells.

The record behind these values is publication PMC8288134, “Synthesis, potential antitumor activity, cell cycle analysis, and multitarget mechanisms of novel hydrazones incorporating a 4-methylsulfonylbenzene scaffold: a molecular docking study” (Journal of Enzyme Inhibition and Medicinal Chemistry, 2021).
